Data set [1] deals with T1, HDAC6 (Homo sapiens, UniProt Q9UBN7).
T1 sequence (Q9UBN7 1-1215): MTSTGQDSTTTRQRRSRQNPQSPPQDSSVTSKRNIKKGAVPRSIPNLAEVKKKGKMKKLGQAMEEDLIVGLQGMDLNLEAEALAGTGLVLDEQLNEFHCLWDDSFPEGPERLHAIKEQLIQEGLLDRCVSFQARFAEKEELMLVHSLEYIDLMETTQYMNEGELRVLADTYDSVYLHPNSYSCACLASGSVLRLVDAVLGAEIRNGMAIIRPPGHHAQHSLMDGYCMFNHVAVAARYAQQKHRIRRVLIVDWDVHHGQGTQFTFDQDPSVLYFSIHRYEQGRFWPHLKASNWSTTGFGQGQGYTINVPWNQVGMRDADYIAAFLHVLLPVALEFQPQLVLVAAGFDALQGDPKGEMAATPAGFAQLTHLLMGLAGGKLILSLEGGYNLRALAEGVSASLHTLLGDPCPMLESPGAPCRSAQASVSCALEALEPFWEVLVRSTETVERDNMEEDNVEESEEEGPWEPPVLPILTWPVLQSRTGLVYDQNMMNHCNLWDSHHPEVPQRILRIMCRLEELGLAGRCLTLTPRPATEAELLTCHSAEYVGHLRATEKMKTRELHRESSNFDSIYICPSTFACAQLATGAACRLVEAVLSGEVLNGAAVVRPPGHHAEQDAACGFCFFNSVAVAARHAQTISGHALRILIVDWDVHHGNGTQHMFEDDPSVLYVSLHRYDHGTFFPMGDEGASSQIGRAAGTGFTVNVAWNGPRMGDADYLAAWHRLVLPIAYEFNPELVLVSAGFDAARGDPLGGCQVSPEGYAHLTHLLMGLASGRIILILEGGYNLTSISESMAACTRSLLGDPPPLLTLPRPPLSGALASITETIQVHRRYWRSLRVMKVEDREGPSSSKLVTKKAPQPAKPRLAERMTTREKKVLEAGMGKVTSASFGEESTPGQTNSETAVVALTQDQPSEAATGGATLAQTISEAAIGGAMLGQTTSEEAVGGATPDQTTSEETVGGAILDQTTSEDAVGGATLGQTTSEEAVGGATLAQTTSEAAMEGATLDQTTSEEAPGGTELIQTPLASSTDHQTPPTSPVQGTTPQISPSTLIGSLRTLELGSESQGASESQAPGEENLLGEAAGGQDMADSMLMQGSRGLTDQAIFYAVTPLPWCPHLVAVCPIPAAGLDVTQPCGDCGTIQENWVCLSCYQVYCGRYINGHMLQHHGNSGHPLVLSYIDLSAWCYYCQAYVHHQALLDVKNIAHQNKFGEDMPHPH
Briefly: HDAC6 enzymatic inhibition assay. The data set is classed as biochemical. Conditions: for Selectivity HDAC1/HDAC6: ratio of HDAC1 and HDAC6 IC50 of Table 1 (fold); for IC50: 10-point enzymatic assay starting from 30 μM, 3-fold serial dilution.

In data set [2] the test system is mutant HSPB1 DRG neurons. Briefly: Mitochondrial axonal transport in mutant HSPB1 DRG neurons. Particulars: DRG neurons from transgenic mutant HSPB1 mice, 100 nM overnight. The data set is classed as cell-based, mouse.
Data set [3] can be described thus: Aqueous solubility. Conditions: PBS.
Data set [4] is described as follows: Plasma stability, human. In kind it is in vitro ADME. Particulars: 120 min.
In data set [5] the target is CYP 2D6 (Homo sapiens, UniProt P10635). Briefly: CYP inhibition 2D6. The data set is classed as in vitro ADME.
CYP 2D6, sequence (P10635 whole entry): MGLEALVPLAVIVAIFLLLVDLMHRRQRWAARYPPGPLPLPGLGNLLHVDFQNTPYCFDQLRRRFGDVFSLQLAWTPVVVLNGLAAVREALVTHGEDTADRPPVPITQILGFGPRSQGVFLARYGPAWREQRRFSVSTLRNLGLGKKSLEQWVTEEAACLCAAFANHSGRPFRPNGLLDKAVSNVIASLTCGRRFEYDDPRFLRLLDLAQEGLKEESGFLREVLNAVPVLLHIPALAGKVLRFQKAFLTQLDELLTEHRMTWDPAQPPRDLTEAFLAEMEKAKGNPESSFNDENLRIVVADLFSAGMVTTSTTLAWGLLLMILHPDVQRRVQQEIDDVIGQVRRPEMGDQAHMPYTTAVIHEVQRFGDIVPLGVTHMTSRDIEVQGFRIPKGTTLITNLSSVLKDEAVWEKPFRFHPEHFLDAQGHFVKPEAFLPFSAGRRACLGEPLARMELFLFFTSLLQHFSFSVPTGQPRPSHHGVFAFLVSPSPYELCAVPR
Data set [6] has as its target CYP 2C19 (Homo sapiens, UniProt P33261). Briefly: CYP inhibition 2C19.
A short description of data set [7]: Plasma stability, mouse. Conditions: 120 min. The data set is classed as in vitro ADME.
The target in data set [8] is CYP 2C9 (Homo sapiens, UniProt P11712). The data set is described as follows: CYP inhibition 2C9.
CYP 2C9, sequence (P11712 whole entry): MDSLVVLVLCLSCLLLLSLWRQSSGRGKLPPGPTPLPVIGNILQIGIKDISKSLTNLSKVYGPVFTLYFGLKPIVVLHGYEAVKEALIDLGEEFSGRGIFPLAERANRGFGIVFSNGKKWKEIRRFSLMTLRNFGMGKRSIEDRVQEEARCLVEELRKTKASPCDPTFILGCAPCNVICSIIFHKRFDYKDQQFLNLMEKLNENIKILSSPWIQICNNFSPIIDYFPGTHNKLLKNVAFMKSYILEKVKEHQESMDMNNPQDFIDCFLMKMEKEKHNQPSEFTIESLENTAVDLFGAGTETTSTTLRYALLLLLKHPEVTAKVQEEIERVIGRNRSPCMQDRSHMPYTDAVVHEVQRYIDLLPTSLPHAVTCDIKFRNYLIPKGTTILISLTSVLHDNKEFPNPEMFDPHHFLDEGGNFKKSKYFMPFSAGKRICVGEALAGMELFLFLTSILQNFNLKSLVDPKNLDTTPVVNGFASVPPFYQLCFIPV
Data set [9] can be described thus: Caco-2 permeability. In kind it is in vitro ADME. Particulars: human, Caco-2, pH 7.4. A general note: Passage across Caco-2 layers is used to estimate intestinal permeability.
The nature of data set [10]: Hepatocyte stability, human. In kind it is in vitro ADME. Conditions: hepatocytes.
Data set [11] is described as follows: Liver microsomes stability, human. In kind it is in vitro ADME. A general note: Liver microsomes are vesicles of endoplasmic reticulum, rich in cytochrome P450 enzymes.
The nature of data set [12]: Hepatocyte stability, mouse. The data set is classed as in vitro ADME. Conditions: hepatocytes.
Data set [13] is described as follows: Liver microsomes stability, mouse. In kind it is in vitro ADME.
In data set [14] the target is T2, CYP 1A2 (Homo sapiens, UniProt P05177).
T2 sequence (P05177 1-516): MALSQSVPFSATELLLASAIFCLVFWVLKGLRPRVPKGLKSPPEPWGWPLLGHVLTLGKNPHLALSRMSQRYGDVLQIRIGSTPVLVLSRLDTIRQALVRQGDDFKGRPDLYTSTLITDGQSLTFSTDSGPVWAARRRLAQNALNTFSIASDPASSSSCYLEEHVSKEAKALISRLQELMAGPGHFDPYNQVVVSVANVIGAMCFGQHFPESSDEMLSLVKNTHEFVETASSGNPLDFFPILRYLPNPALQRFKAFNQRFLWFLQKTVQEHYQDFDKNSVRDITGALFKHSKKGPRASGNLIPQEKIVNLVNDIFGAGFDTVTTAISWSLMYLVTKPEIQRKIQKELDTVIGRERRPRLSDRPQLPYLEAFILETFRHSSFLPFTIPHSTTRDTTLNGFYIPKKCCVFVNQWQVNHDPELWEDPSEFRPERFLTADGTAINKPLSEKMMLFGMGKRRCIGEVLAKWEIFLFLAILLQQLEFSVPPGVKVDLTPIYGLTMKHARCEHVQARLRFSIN
Briefly: CYP inhibition 1A2.

Data set [15] in a line: Intravenous and oral plasma pharmacokinetics in male CD1 mice. In kind it is in vivo. Conditions: CD1, mouse.
[16] abbreviates: IC50 (nM) HDAC6, mean of two experiments ± standard deviation.

Molecules are shown by their SMILES. Converted amounts (≈) assume the structure as drawn. “And” between values parts separate entries of the source, which are not always exact repeats. Equal values may be shown once. Read-outs that look alike come from different tables or passages of the source.

CYP 2C19, sequence (P33261 whole entry): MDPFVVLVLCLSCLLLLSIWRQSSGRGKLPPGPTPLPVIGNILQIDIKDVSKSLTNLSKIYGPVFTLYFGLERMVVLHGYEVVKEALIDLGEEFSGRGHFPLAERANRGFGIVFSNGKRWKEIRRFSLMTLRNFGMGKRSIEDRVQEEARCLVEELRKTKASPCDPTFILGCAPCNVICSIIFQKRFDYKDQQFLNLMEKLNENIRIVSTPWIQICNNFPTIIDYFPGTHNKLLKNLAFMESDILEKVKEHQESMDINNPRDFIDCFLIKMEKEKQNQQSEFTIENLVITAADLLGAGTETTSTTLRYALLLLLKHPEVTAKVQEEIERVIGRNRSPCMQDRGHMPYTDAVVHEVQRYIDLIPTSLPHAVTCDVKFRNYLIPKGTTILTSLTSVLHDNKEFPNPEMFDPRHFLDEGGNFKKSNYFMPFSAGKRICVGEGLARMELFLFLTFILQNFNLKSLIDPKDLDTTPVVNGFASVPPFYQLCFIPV

The IC50 is the point on the concentration scale where inhibition reaches its midpoint. Usually aqueous solubility stands for how much of the substance goes into solution per volume. A low value points to little dissolved substance. Regarding `Cc1nc2ccccc2n1Cc1ccc(C(=O)NO)cc1` [12a], the “fold increase in HDAC6 inhibitory potency” value in data set [1] (compared to 8 (hydrogen to methyl)) worked out at 3 fold. Also, the “Selectivity HDAC1/HDAC6” value in data set [1] is 955. Also, the IC50 in [1] (read-out: IC50 (nM) HDAC6, mean of two experiments ± standard deviation) is 9 nM and 9.2 nM. The “mitochondrial axonal transport (number of moving mitochondria per 100 μm of neurite)” value in [2] is “able to restore the movement of mitochondria”. In data set [3] (pH 7.4), this compound gave an aqueous solubility of 70 µM (≈ 19.7 µg/mL).
With `CC(C)c1nc2ccccc2n1Cc1ccc(C(=O)NO)cc1` [12b, N-Hydroxy-4-[(2-isopropyl-1-benzimidazolyl)methyl]benzamide], the “Selectivity HDAC1/HDAC6” value in data set [1] is reported as 589.
As to `CC(=O)NCCCc1nc2ccccc2n1Cc1ccc(C(=O)NO)cc1` [12d, 4-[[2-(3-Acetamidopropyl)-1-benzimidazolyl]methyl]-N-hydroxybenzamide], in [1], the “Selectivity HDAC1/HDAC6” value turned out to be 312.
`CN(C)CCc1nc2ccccc2n1Cc1ccc(C(=O)NO)cc1` [12e, 4-[[2-[2-(Dimethylamino)ethyl]-1-benzimidazolyl]methyl]-N-hydroxybenzamide]: the “Selectivity HDAC1/HDAC6” value in data set [1] was 416.
In data set [1] (setting [16]), `O=C(NO)c1ccc(CN2CCNc3ccccc32)cc1` [17a, 4-[[1,2,3,4-Tetrahydroquinoxalin-1-yl]methyl]-N-hydroxybenzamide] gave an IC50 of 3 nM.
With `O=C(NO)c1ccc(CN2CCN(CC3CC3)c3ccccc32)cc1` [17b, 4-[[4-(Cyclopropylmethyl)-1,2,3,4-tetrahydroquinoxalin-1-yl]-methyl]-N-hydroxybenzamide], inhibition in data set [1] (setting [16]) was half-maximal at 39.3 ± 0.3 nM (IC50).
`O=C(NO)c1ccc(CN2CCSc3ccccc32)cc1` [17c, 4-[[2,3-Dihydro-4H-benzo[b][1,4]thiazin-4-yl]methyl]-N-hydroxybenzamide]: in data set [1] (setting [16]), the IC50 was 6 nM.
Compound `CC(C)(C)OC(=O)N1CC(=O)N(Cc2ccc(C(=O)NO)cc2)c2ccccc21` [17e, tert-Butyl 4-[4-(Hydroxycarbamoyl)benzyl]-3-oxo-3,4-dihydroquinoxaline-1(2H)-carboxylate] registered an IC50 in data set [1] (setting [16]) of 34 nM.
Turning to `O=C(NO)c1ccc(Cn2c(=O)cnc3ccccc32)cc1` [17f, N-Hydroxy-4-[(2-oxoquinoxalin-1(2H)-yl)methyl]benzamide], the IC50 in data set [1] (setting [16]) came out at 1 nM.
Consider `Cc1nc2ccccc2n1Cc1nc(C(=O)NO)co1` [23a, N-Hydroxy-2-[(2-methyl-1-benzimidazolyl)methyl]oxazole-4-carboxamide], for which the “fold reduction of HDAC6 activity compared to 12a” value in [1] is over 400 fold.
With `Cc1nc2ccccc2n1Cc1nc(C(=O)NO)cs1` [23b, N-Hydroxy-2-[(2-methyl-1-benzimidazolyl)methyl]thiazole-4-carboxamide], in data set [1] (setting [16]), the IC50 worked out at 8310 ± 905 nM. Also, the “fold reduction of HDAC6 activity compared to 12a” value in [1] is over 900 fold.
In data set [1] (setting [16]), `Cc1nc2ccccc2n1Cc1ccc(C(=O)NO)cn1` [23c, N-Hydroxy-6-[(2-methyl-1-benzimidazolyl)methyl]nicotinamide] yielded an IC50 of 77 nM.
As for `O=C(NO)c1ccc(Cn2c(C(F)(F)F)nc3ccccc32)c(F)c1` [23e, 3-Fluoro-N-hydroxy-4-[(2-(trifluoromethyl)-1-benzimidazolyl)-methyl]benzamide], the IC50 in [1] (setting [16]) turned out to be 16 nM. Moreover, in data set [1], the “Selectivity HDAC1/HDAC6” value is 1500.
In [1] (setting [16]), `Cc1nc2cc(F)ccc2n1Cc1ccc(C(=O)NO)cc1` [30b, 4-[(5-Fluoro-2-methyl-1-benzimidazolyl)methyl]-N-hydroxybenzamide] came in with an IC50 of 6 nM.
Broadly, the solubility is the dissolved amount per volume that the medium holds. Higher therefore signals much dissolved substance. A word on the Papp A→B: it is how fast a substance crosses the layer from the apical side. Read a low Papp A→B as slow passage. Usually Papp B→A stands for the apparent permeability from the basolateral to the apical side of a cell layer. A word on the half-life: it is the time needed for the level to fall by half in the phase considered. A low value points to fast loss. The Tmax is the time from dosing to the highest level. For `CN1CCc2c(c3ccccc3n2Cc2ccc(C(=O)NO)cc2)C1` [tubastatin A, reference compound], the “plasma stability remaining percentage” value in [4] is reported as 96.4%; in data set [7], 83.0%. Also, the “mitochondrial axonal transport (number of moving mitochondria per 100 μm of neurite)” value in data set [2] is recorded as “able to restore the movement of mitochondria”. Further, the IC50 in data set [5] was 16000 nM; in data set [6], over 50000 nM; in [8], over 50000 nM; in [14], over 50000 nM. The compound further came in with a solubility in [3] (pH 7.4, aqueous buffer) of 301 µM (≈ 101 µg/mL). The same compound gave a Papp A→B in data set [9] of 2 ×10⁻⁶ cm/s. In data set [9], this compound had a Papp B→A of 19.7 ×10⁻⁶ cm/s. Besides, the half-life in [10] was 1.47 h; in data set [11] it was 25.3 h; in data set [12], 0.5 h; in data set [13], 5.05 h. Also, the clearance in data set [15] (iv, 3 mg/kg) is 222 mL/min/kg. Further, the Tmax in data set [15] (po, 30 mg/kg) was 0.25 h.

Values taken from PMC4775085 (ACS chemical neuroscience, 2015).
